# Several values for one entry are separate records, joined by “and”; a condition that tells them apart may be missing. Identical values can stand only once. Like-named read-outs stand apart in the source and are kept apart here.
# Experiments:
# [1] = system: Staphylococcus aureus strain ATCC 29213 (wild type); assay: MIC of the compounds used alone, microdilution in a liquid medium (CLSI); assay type: cell-based; details: S. aureus ATCC 29213
# From the text: (§1) The MICs of the antibiotics were previously defined for each strain, by the method of microdilution in a liquid medium (CLSI (Clinical and Laboratory Standards Institute), 2003).
# [2] = system: MRSA strain having a resistance to the aminoglycosides and fluoroquinolones (SaR3); assay: as above; assay type: cell-based, Staphylococcus aureus; details: SaR3
# From the text: as §1
# [3] = system: MRSA strain having a resistance to the aminoglycosides, fluoroquinolones, macrolides-lincosamides-synergistins and ofloxacin (SaR4); assay: as above; assay type: cell-based, Staphylococcus aureus; details: SaR4
# From the text: as §1
# [4] = system: MRSA strain without associated resistance (SaR1); assay: as above; assay type: cell-based, Staphylococcus aureus; details: SaR1
# From the text: as §1
# [5] = system: SaR1: Meticillin-Resistant Staphylococcus aureus without Associated Resistance; assay: Antibiogram, MIC by the VITEK 2 system; assay type: cell-based; details: SaR1; for CA-SFM Interpretation: Cc CA-SFM 2011; for EUCAST Interpretation: Cc EUCAST 2011; for Results: from MIC
# Description: (§2) The bacterial and antibiogramidentification is carried out by the VITEK 2 system (bioMérieux)
# [6] = system: SaR3: Meticillin-Resistant Staphylococcus aureus; assay: Antibiogram by the disk diffusion technique; assay type: cell-based; details: for CA-SFM Interpretation: Cd CA-SFM 2011; for Diameter: Table E1; for Results: Table E1, against Dmin Dmax; for diameter in mm: Table E2
# Description: (§3) The bacterial and antibiogramidentification is carried out by the VITEK 2 system (bioMérieux) and by the disk diffusion technique
# [7] = system: SaR4: Meticillin-Resistant Staphylococcus aureus; assay: Antibiogram, MIC by the VITEK 2 system; assay type: cell-based; details: SaR4; for CA-SFM Interpretation: Cc CA-SFM 2011; for EUCAST Interpretation: Cc EUCAST 2011; for MIC: Staphylococcus aureus, read-out: MIC
# Description: as §3
# [8] = system: SaR1: Meticillin-Resistant Staphylococcus aureus without Associated Resistance; assay: Antibiogram, inhibition diameter (Table D1); assay type: cell-based; details: for Results: from diameter, against Dmin Dmax
# Description: as §2
# [9] = system: ESBL-producing strain of Escherichia coli, having an associated resistance to the aminoglycosides (EcR3); assay: MIC of the compounds used alone, microdilution in a liquid medium (CLSI); assay type: cell-based; details: Cx1 alone (first value of cell)
# From the text: as §1
# [10] = system: Escherichia coli strain ATCC 25922 (wild type); assay: as above; assay type: cell-based; details: E. coli ATCC 25922
# From the text: as §1
# [11] = system: Pseudomonas aeruginosa strain ATCC 27853 (wild type); assay: as above; assay type: cell-based; details: P. aeruginosa ATCC 27853
# From the text: as §1
# [12] = system: Pseudomonas aeruginosa strain PaR3; assay: as above; assay type: cell-based
# From the text: as §1
# [13] = system: cephalosporinase-hyperproducing strain of Escherichia coli (EcR2); assay: as above; assay type: cell-based; details: Cx1 alone (first value of cell)
# From the text: as §1
# [14] = system: mucoid strain of Pseudomonas aeruginosa PaR5; assay: as above; assay type: cell-based
# From the text: as §1
# [15] = system: penicillinase-producing strain of Escherichia coli without associated resistance (EcR1); assay: as above; assay type: cell-based; details: Cx1 alone (first value of cell)
# From the text: as §1
# [16] = system: Pseudomonas aeruginosa strain PaR2; assay: microbe, parasite or virus in culture; assay type: cell-based
# From the text: as §1
# [17] = MIC of the compounds used alone, microdilution in a liquid medium (CLSI); assay type: cell-based, Staphylococcus aureus; details: Staphylococcus aureus, MRSA; antibiotic alone (second value of cell); SaR4; read-out: MIC
# From the text: as §1
# [18] = system: EcR1: Penicillinase-Producing Escherichia coli without Associated Resistance; assay: Antibiogram by the disk diffusion technique; assay type: cell-based
# Description: 5.1 EcR1: Penicillinase-Producing Escherichia coli without Associated Resistance The bacterial and antibiogramidentification is carried out by the VITEK 2 system (bioMérieux) and by the disk diffusion technique.
# [19] = system: EcR3: ESBL-Producing Escherichia coli; assay: Antibiogram by the disk diffusion technique; assay type: cell-based
# Description: The bacterial and antibiogramidentification is carried out by the VITEK 2 system (bioMerieux) and by the disk diffusion technique
# [20] = system: PaR5: Pseudomonas aeruginosa; assay: Antibiogram by the disk diffusion technique; assay type: cell-based
# Description: as §3
# [21] = system: PaR2: Pseudomonas aeruginosa; assay type: cell-based
# Description: as §3
# [22] = system: Escherichia coli, Staphylococcus aureus and Pseudomonas aeruginosa strains; assay: Chessboard technique, summary statements over all strains and combinations tested; assay type: cell-based; details: strain not stated
# From the text: 1.3. Procedure: Chessboard Technique
# The same procedure is followed for the Cx1. […] Thus 64 ATB/Cx1 combinations are obtained.
# The FIC (Fractional Inhibitory Concentration Index) value is defined by the following formula: […]
# When FIC≦0.5, there is a synergistic effect between antibiotic A and antibiotic B.
# When 0.5<FIC≦1, there is an additive effect between antibiotic A and antibiotic B.
# When 1<FIC≦4, there is an indifferent effect between antibiotic A and antibiotic B.
# When FIC>4, there is an antagonistic effect between antibiotic A and antibiotic B.
# For each strain and each antibiotic/Cx1 combination, the experiments were repeated a minimum of 3 times.
# [23] = antibiotic alone (second value of cell)
# [24] = Cx1 alone (first value of cell)
# [25] = Pseudomonas aeruginosa, antibiotic alone (second value of cell), read-out: MIC
# [26] = Staphylococcus aureus, MRSA, antibiotic alone (second value of cell), read-out: MIC
compound,measurement,setting,value
CC1(C)S[C@@H]2[C@H](NC(=O)Cc3ccccc3)C(=O)N2[C@H]1C(=O)O [Penicillin G],Initial MICs,[1]; [23],1 mg/L
same,MIC,[2]; [23],0.5 µg/mL
same,MIC,[3]; [23],4 µg/mL
same,MIC,[4]; [23],0.5 µg/mL
same,CA-SFM Interpretation,[5],Resistant
same,CLSI Interpretation,[5]; Cc CLSI 2011,Resistant
same,EUCAST Interpretation,[5],Resistant
same,MIC mg/L,[5]; Table D1,≧0.5 mg/L
same,Results,[5]; Table D1,Resistant
same,MIC mg/L,[5]; Table D2,≧0.5 mg/L
same,CA-SFM Interpretation,[6],Resistant
same,CLSI Interpretation,[6]; Cd CLSI 2011,Resistant
same,EUCAST Interpretation,[6]; Cd EUCAST 2011,Resistant
same,Diameter,[6],26 mm
same,Results,[6],Resistant
same,diameter in mm,[6],26 mm
same,Results,"[7]; Table F1, MIC",Resistant
same,CA-SFM Interpretation,[7]; from MIC,Resistant
same,CLSI Interpretation,"[7]; from MIC, Cc CLSI 2011",Resistant
same,EUCAST Interpretation,[7]; from MIC,Resistant
same,Diameter,[8],28 mm
same,Results,[8],Resistant
para-guanidinoethylcalix[4]arene [Cx1],Initial MICs,[9],2 mg/L
same,Initial MICs (mg/L),[9],2/2 mg/L
same,Initial MICs,[10]; [24],4 mg/L and 2 mg/L
same,Initial MICs (mg/L),[10]; [24],4/4 mg/L
same,"Initial MICs (mg/L), Cx1",[10]; Cx1 alone,4 mg/L
same,MIC,[11]; [24],32 µg/mL
same,"Initial MICs (mg/L), Cx1",[11]; Cx1 alone,32/32 mg/L and 32 mg/L
same,MIC,[12]; [24],32 µg/mL
same,MIC mg/L,[12]; [24],32/32 mg/L
same,Initial MICs,[1]; [24],8 mg/L
same,Initial MICs (mg/L),[1]; [24],8/8 mg/L
same,"Initial MICs (mg/L), Cx1",[1]; Cx1 alone,8 mg/L
same,Initial MICs,[13],2 mg/L
same,Initial MICs (mg/L),[13],2/2 mg/L
same,MIC,[14]; [24],32 µg/mL
same,MIC mg/L,[14]; [24],32/32 mg/L
same,Initial MICs,[15],2 mg/L
same,MIC,[2]; [24],8 µg/mL
same,MIC mg/L,[2]; [24],8/8 mg/L
same,MIC,[3]; [24],8 µg/mL
same,MIC,[4]; [24],8 µg/mL
same,MIC,[16]; [24],32 µg/mL
C[C@@H]1O[C@@H]1P(=O)(O)O [Fosfomycin],MIC,"[11]; Pseudomonas aeruginosa, ATCC27853, antibiotic alone (second value of cell), read-out: MIC",16 µg/mL
same,MIC,[12]; [25],> 64 µg/mL
same,MIC,"[1]; Staphylococcus aureus, ATCC29213, antibiotic alone (second value of cell), read-out: Initial MICs",8 µg/mL
same,MIC,[14]; [25],16 µg/mL
same,MIC,[17],128 µg/mL
same,MIC,[2]; [26],16 µg/mL
same,MIC,[4]; [26],2 µg/mL
same,MIC,[16]; [25],64 µg/mL
same,MIC mg/L (diameter in mm),"[18]; EcR1, cells that print a diameter, Table A2",24 mm
same,CA-SFM Interpretation,"[18]; EcR1, diameter against CA-SFM 2011 limits",Susceptible
same,CLSI Interpretation,"[18]; EcR1, diameter against CLSI 2011 limits",Susceptible
same,Diameter,"[18]; EcR1, disk diffusion, Table A1",24 mm
same,Results,"[18]; EcR1, interpretation of the diameter against Dmin Dmax, Table A1",Susceptible
same,CA-SFM Interpretation,[19]; Cd CA-SFM 2011,Susceptible
same,CLSI Interpretation,[19]; Cd CLSI 2011,Susceptible
same,Diameter,[19]; Table C1,23 mm
same,Results,"[19]; Table C1, against Dmin Dmax",Susceptible
same,diameter in mm,[19]; Table C2,23 mm
same,CA-SFM Interpretation,[5],Susceptible
same,EUCAST Interpretation,[5],Susceptible
same,Results,[5]; Table D1,Susceptible
same,MIC mg/L,[5]; Table D2,≦8 mg/L
same,MIC,"[5]; Staphylococcus aureus, Table D1, read-out: MIC",≤ 8 µg/mL
same,Diameter,"[20]; PaR5, Table I1",30 mm
same,Results,"[20]; PaR5, Table I1, against Dmin-Dmax",Susceptible
same,diameter in mm,"[20]; disk diffusion inhibition diameter, strain PaR5",30 mm
same,CA-SFM Interpretation,"[20]; disk diffusion, PaR5, versus critical diameter CA-SFM 2011",Susceptible
same,CA-SFM Interpretation,[6],Susceptible
same,Diameter,[6],26 mm
same,Results,[6],Susceptible
same,diameter in mm,[6],26 mm
same,Results,"[7]; Table F1, MIC",Resistant
same,CA-SFM Interpretation,[7]; from MIC,Resistant
same,EUCAST Interpretation,[7]; from MIC,Resistant
same,MIC,[7]; Table F1,≥ 64 µg/mL
same,MIC,"[7]; Table F2, MIC",≥ 64 µg/mL
same,CA-SFM Interpretation,[21]; Cd CA-SFM 2011,Resistant
same,Diameter,[21]; Table G1,13 mm
same,Results,"[21]; Table G1, against Dmin-Dmax",Resistant
same,diameter in mm,[21]; Table G2,13 mm
same,interaction between the antibiotic and Cx1,[22],synergism
same,Diameter,[8],40 mm
same,Results,[8],Susceptible

# — patent US20140066365A1, “USE OF CALIXARENES ASSOCIATED WITH AN ANTIBIOTIC IN THE TREATMENT OF BACTERIAL INFECTIONS” (priority 2011, published 2014)
